Reference: PubChem BioAssay AID2060504 (Molecular Pharmacology Branch, DTP, NCI, 2025)

System: 636577-100-R-J1-PDC complex spheroid viability
Assay: Anticancer human tumor 636577-100-R-J1-PDC patient-derived endometrial adenocarcinoma cell line growth inhibition [GQUAD]
Conditions: for IC50: curve of first compound; for viability, T/C: stronger effect = lower value
Summary of the method: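 Tumor cells were grown as complex spheroids with HUVEC endothelial cells and mesenchymal stem cells as stroma. G-quadruplex stabilizers were combined with targeted agents over half-log dilutions from near the clinical Cmax, or from 10 microM.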

[1] = second compound 0.0316 µM, first compound 0.0316 µM
[2] = second compound 0.0316 µM, first compound 0.1 µM
[3] = second compound 0.0316 µM, first compound 0.316 µM
[4] = second compound 0.0316 µM, first compound 1 µM
[5] = second compound 0.0316 µM, first compound 3.16 µM
[6] = second compound 0.0316 µM, first compound 10 µM
[7] = second compound 0.1 µM, first compound 0.0316 µM
[8] = second compound 0.1 µM, first compound 0.1 µM
[9] = second compound 0.1 µM, first compound 0.316 µM
[10] = second compound 0.1 µM, first compound 1 µM
[11] = second compound 0.1 µM, first compound 3.16 µM
[12] = second compound 0.1 µM, first compound 10 µM
[13] = second compound 0.316 µM, first compound 0.0316 µM
[14] = second compound 0.316 µM, first compound 0.1 µM
[15] = second compound 0.316 µM, first compound 0.316 µM
[16] = second compound 0.316 µM, first compound 1 µM
[17] = second compound 0.316 µM, first compound 3.16 µM
[18] = second compound 0.316 µM, first compound 10 µM
[19] = second compound 1 µM, first compound 0.0316 µM
[20] = second compound 1 µM, first compound 0.1 µM
[21] = second compound 1 µM, first compound 0.316 µM
[22] = second compound 1 µM, first compound 1 µM
[23] = second compound 1 µM, first compound 3.16 µM
[24] = second compound 1 µM, first compound 10 µM
[25] = second compound 3.16 µM, first compound 0.0316 µM
[26] = second compound 3.16 µM, first compound 0.1 µM
[27] = second compound 3.16 µM, first compound 0.316 µM
[28] = second compound 3.16 µM, first compound 1 µM
[29] = second compound 3.16 µM, first compound 3.16 µM
[30] = second compound 3.16 µM, first compound 10 µM
[31] = second compound 10 µM, first compound 0.0316 µM
[32] = second compound 10 µM, first compound 0.1 µM
[33] = second compound 10 µM, first compound 0.316 µM
[34] = second compound 10 µM, first compound 1 µM
[35] = second compound 10 µM, first compound 3.16 µM
[36] = second compound 10 µM, first compound 10 µM
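Also: viability read after seven days of drug exposure.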
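For viability, T/C in this document: luminescence signal used as a proxy for viable cells; 100% = DMSO vehicle control wells.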

In the case of `CC(=O)O[C@H]1C(=O)[C@@]2(C)[C@H]([C@H](OC(=O)c3ccccc3)[C@]3(O)C[C@H](OC(=O)[C@H](O)[C@@H](NC(=O)c4ccccc4)c4ccccc4)C(C)=C1C3(C)C)[C@]1(OC(C)=O)CO[C@@H]1C[C@@H]2O` + Cc1cnc(CNC(=O)c2c(=O)c3ccc(N4CCCN(C)CC4)nc3n3c2sc2ccccc23)cn1, the IC50 (second compound 0.0316 µM) is reported as less than 31.6 nM, the IC50 (second compound 0.1 µM) is reported as less than 31.6 nM and the IC50 (second compound 0.316 µM) is reported as less than 31.6 nM. For the same molecule, the IC50 (second compound 1 µM) was less than 31.6 nM, the IC50 (second compound 3.16 µM) was less than 31.6 nM and the IC50 (second compound 10 µM) was less than 31.6 nM. For the same molecule, the viability, T/C [1] was 22.4%, the viability, T/C [2] was 13.4% and the viability, T/C [3] was 13%. For the same molecule, the viability, T/C [4] was 10.6%, the viability, T/C [5] was 9.54% and the viability, T/C [6] was 9.18%. The viability, T/C [7] was 23.1%, the viability, T/C [8] was 16.2% and the viability, T/C [9] was 14.3%. The viability, T/C [10] was 10.2%, the viability, T/C [11] was 12.1% and the viability, T/C [12] was 10.1%. For the same molecule, the viability, T/C [13] was 23.6%, the viability, T/C [14] was 18% and the viability, T/C [15] was 13.9%. For the same molecule, the viability, T/C [16] was 12.5%, the viability, T/C [17] was 11.2% and the viability, T/C [18] was 10.7%. For the same molecule, the viability, T/C [19] was 21.2%, the viability, T/C [20] was 16.5% and the viability, T/C [21] was 15%. For the same molecule, the viability, T/C [22] was 14.2%, the viability, T/C [23] was 13.2% and the viability, T/C [24] was 10.7%. It also gave a viability, T/C [25] of 19.6%, a viability, T/C [26] of 18.2% and a viability, T/C [27] of 17.2%. For the same molecule, the viability, T/C [28] was 14.3%, the viability, T/C [29] was 15.7% and the viability, T/C [30] was 14.3%. For the same molecule, the viability, T/C [31] was 18.1%, the viability, T/C [32] was 18.5% and the viability, T/C [33] was 17.8%. For the same molecule, the viability, T/C [34] was 15.3%, the viability, T/C [35] was 15.2% and the viability, T/C [36] was 15.3%.
`COc1ncnc(C2CC2)c1-c1ncc2cnn(Cc3ccc(-c4nc(C(F)(F)F)cn4C(C)C)cc3)c2n1` + Cc1[nH]c2ccc(F)cc2c1-c1nc2c3cccnc3c3ncccc3c2[nH]1 showed an IC50 (second compound 0.0316 µM) greater than 10000 nM, an IC50 (second compound 0.1 µM) greater than 10000 nM and an IC50 (second compound 0.316 µM) greater than 10000 nM. The IC50 (second compound 1 µM) was greater than 10000 nM, the IC50 (second compound 3.16 µM) was less than 31.6 nM and the IC50 (second compound 10 µM) was less than 31.6 nM. It also gave a viability, T/C [1] of 86.6%, a viability, T/C [2] of 67.6% and a viability, T/C [3] of 77.3%. The viability, T/C [4] was 57.8%, the viability, T/C [5] was 66.7% and the viability, T/C [6] was 75.3%. For the same molecule, the viability, T/C [7] was 74.8%, the viability, T/C [8] was 57.1% and the viability, T/C [9] was 87%. For the same molecule, the viability, T/C [10] was 54.6%, the viability, T/C [11] was 79.9% and the viability, T/C [12] was 67.6%. The viability, T/C [13] was 63.8%, the viability, T/C [14] was 60.6% and the viability, T/C [15] was 62.8%. The viability, T/C [16] was 64.5%, the viability, T/C [17] was 77.3% and the viability, T/C [18] was 66.6%. For the same molecule, the viability, T/C [19] was 57.8%, the viability, T/C [20] was 59% and the viability, T/C [21] was 60.1%. The viability, T/C [22] was 50.2%, the viability, T/C [23] was 50.1% and the viability, T/C [24] was 57.4%. It also gave a viability, T/C [25] of 20.8%, a viability, T/C [26] of 27.6% and a viability, T/C [27] of 22.6%. It also gave a viability, T/C [28] of 28.4%, a viability, T/C [29] of 27.5% and a viability, T/C [30] of 26.1%. It also gave a viability, T/C [31] of 28.9%, a viability, T/C [32] of 29.5% and a viability, T/C [33] of 26.4%. It also gave a viability, T/C [34] of 27.1%, a viability, T/C [35] of 32.1% and a viability, T/C [36] of 32.6%.
`CC1COCCN1c1cc(C2(S(C)(=N)=O)CC2)nc(-c2ccnc3[nH]ccc23)n1` (stereo unspecified) + CN(C)c1ccc(Nc2c3ccc(NC(=O)CCN4CCCC4)cc3nc3cc(NC(=O)CCN4CCCC4)ccc23)cc1 was tested, and the IC50 (second compound 0.0316 µM) was 1040 nM, the IC50 (second compound 0.1 µM) was 934 nM and the IC50 (second compound 0.316 µM) was 463 nM. It also gave an IC50 (second compound 1 µM) of 626 nM, an IC50 (second compound 3.16 µM) of less than 31.6 nM and an IC50 (second compound 10 µM) of less than 31.6 nM. For the same molecule, the viability, T/C [1] was 91.4%, the viability, T/C [2] was 74.6% and the viability, T/C [3] was 89.4%. The viability, T/C [4] was 51.2%, the viability, T/C [5] was 21.4% and the viability, T/C [6] was 14%. The viability, T/C [7] was 78.4%, the viability, T/C [8] was 71.3% and the viability, T/C [9] was 89.4%. For the same molecule, the viability, T/C [10] was 48.1%, the viability, T/C [11] was 22.4% and the viability, T/C [12] was 14.6%. It also gave a viability, T/C [13] of 75.7%, a viability, T/C [14] of 67.3% and a viability, T/C [15] of 54.2%. The viability, T/C [16] was 41.2%, the viability, T/C [17] was 24.4% and the viability, T/C [18] was 14.1%. For the same molecule, the viability, T/C [19] was 42.9%, the viability, T/C [20] was 80.2% and the viability, T/C [21] was 65%. The viability, T/C [22] was 41.2%, the viability, T/C [23] was 23.6% and the viability, T/C [24] was 16%. The viability, T/C [25] was 34.6%, the viability, T/C [26] was 45.8% and the viability, T/C [27] was 34%. For the same molecule, the viability, T/C [28] was 29.5%, the viability, T/C [29] was 18.3% and the viability, T/C [30] was 13.2%. It also gave a viability, T/C [31] of 6.13%, a viability, T/C [32] of 5.83% and a viability, T/C [33] of 5.26%. For the same molecule, the viability, T/C [34] was 5.47%, the viability, T/C [35] was 3.58% and the viability, T/C [36] was 1.72%.
